The source of these data is patent publication US20250115581A1, “SUBSTITUTED PIPERIDINES AS CK1A DEGRADERS” (Monte Rosa Therapeutics, Inc., priority 2022, published 2025).

pIC50: −log10 of the molar value.

One assay deals with T1, CK1α (Homo sapiens, UniProt P48729+Q96SW2).
T1 construct: HEK293 clonal lines with CRISPR KI HiBiT tag on CSNK1A1; host or cells: HEK293 clonal line, CRISPR knock-in HiBiT at the CSNK1A1 locus, stably expressing LgBiT
Nature of the assay: CK1α NanoBit Assay (HiBiT-tagged CSNK1A1 in HEK293 cells, luminescence). It is filed as cell-based. The following applies: 24 h. The gist of the method: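 HEK293 with endogenous HiBiT-tagged CSNK1A1 and stable LgBiT, live-cell Endurazine substrate; compound added at 10 or 30 μM final top concentration after 16 h plating, then 24 h at 37 °C. Luminescence normalised to plate controls; DC50 by 3-parameter logistic fit, hill slope 1.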
For orientation: HiBiT is a short tag that completes a luciferase, so light tracks the accessible tagged protein.

A further assay concerns the target CRBN/DDB1 (Homo sapiens, UniProt Q96SW2). The assay is described as follows: HTRF binding assay (displacement of Cy5-thalidomide probe from CRBN/DDB1). The following applies: CRBN/DDB1 2.5 nM, Cy5-Thalidomide 100 nM, 30 min; geometric mean; read-out: HTRF_Thali_Disp_DR_geo_IC50. The gist of the method:
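HTRF displacement of Cy5-thalidomide probe (100 nM) from His-tagged CRBN/DDB1 (2.5 nM) with anti-His terbium cryptate, in HEPES/NaCl/TCEP/EDTA/Tween20 buffer; 10-point 1:3 series, 30 min at ambient temperature. 665/620 nm ratio fitted 4-parameter logistic for IC50; Ki via Cheng-Prusoff.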

Chain of CRBN/DDB1 (Q96SW2 whole entry): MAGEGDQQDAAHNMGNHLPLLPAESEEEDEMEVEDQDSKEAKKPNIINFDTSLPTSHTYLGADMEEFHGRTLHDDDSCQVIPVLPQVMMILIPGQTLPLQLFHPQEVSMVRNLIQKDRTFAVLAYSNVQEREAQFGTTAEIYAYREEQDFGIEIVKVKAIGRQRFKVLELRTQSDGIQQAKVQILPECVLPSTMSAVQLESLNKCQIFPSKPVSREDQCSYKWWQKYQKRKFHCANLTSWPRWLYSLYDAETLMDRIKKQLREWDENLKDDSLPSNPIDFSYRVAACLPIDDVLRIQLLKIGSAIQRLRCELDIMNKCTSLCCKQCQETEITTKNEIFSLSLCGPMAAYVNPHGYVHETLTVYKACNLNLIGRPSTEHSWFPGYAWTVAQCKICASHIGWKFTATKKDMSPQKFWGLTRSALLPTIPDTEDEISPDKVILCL
Chain of CRBN/DDB1 (Q16531 whole entry partner): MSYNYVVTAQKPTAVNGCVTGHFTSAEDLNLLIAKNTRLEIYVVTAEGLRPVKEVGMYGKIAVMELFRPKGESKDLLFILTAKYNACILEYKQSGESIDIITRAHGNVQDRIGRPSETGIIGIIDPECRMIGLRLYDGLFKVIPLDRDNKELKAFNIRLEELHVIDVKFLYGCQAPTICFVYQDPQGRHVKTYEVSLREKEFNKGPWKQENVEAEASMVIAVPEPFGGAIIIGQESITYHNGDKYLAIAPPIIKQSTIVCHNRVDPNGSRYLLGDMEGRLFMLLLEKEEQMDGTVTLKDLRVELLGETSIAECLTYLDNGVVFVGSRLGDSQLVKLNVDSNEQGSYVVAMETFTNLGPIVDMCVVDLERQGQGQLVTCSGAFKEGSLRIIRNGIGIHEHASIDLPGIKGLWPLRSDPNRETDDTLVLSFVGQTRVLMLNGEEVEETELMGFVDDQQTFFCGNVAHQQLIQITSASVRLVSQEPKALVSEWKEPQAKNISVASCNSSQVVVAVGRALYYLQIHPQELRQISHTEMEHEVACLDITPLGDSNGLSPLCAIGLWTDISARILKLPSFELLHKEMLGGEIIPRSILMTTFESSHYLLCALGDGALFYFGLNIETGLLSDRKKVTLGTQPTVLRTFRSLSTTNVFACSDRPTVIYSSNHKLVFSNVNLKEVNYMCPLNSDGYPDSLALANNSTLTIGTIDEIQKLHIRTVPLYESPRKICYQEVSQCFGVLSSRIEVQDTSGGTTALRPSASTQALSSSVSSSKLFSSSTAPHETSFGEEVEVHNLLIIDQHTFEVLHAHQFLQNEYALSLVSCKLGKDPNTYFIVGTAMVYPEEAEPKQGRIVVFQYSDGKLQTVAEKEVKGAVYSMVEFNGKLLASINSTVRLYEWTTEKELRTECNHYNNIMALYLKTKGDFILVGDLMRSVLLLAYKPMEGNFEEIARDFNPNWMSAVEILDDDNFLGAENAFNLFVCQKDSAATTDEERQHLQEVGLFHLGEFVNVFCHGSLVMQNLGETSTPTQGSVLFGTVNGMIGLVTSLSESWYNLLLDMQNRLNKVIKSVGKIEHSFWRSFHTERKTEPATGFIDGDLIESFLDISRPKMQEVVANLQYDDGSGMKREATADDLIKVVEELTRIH
T1 sequence (P48729 whole entry): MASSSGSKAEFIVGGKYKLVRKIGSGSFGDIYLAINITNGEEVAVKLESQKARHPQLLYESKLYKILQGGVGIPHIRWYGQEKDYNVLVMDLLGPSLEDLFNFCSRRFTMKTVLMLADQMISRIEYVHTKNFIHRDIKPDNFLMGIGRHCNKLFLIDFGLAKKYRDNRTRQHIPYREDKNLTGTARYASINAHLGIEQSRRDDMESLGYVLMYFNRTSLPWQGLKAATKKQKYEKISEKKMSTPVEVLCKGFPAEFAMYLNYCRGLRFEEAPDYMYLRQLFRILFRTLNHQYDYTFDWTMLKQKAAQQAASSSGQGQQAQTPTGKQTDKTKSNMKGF
T1 sequence (Q96SW2 whole entry): as the sequence (Q96SW2 whole entry) above
T1 sequence (Q16531 whole entry partner): as the sequence (Q16531 whole entry partner) above

For the compound `O=C1CCC(N2Cc3cc(N4CCN(C5CN(c6ccccc6)C5)C4=O)ccc3C2=O)C(=O)N1` (stereo not drawn) [Compound 174, 3-(1-oxo-5-(2-oxo-3-(1-phenylazetidin-3-yl)imidazolidin-1-yl)isoindolin-2-yl)piperidine-2,6-dione], the DC50 on CK1α was > 1 µM. At CRBN/DDB1, the pIC50 was 6.00 to 7.00.

As to `COCc1ccc(N2C(=O)N(c3ccc4c(c3)CN(C3CCC(=O)NC3=O)C4=O)C[C@H]2C)cc1` (stereo partly drawn) [Compound 134, 3-(5-((R)-3-(4-(methoxymethyl)phenyl)-4-methyl-2-oxoimidazolidin-1-yl)-1-oxoisoindolin-2-yl)piperidine-2,6-dione], on CK1α, the DC50 is ≤ 0.1 µM. The pIC50 on CRBN/DDB1 is 6.00 to 7.00.

For the compound `O=C1CCC(N2Cc3cc(N4CCN(c5cccc6nc[nH]c56)C4=O)ccc3C2=O)C(=O)N1` (stereo not drawn) [Compound 175, 3-(5-(3-(1H-benzo[d]imidazol-7-yl)-2-oxoimidazolidin-1-yl)-1-oxoisoindolin-2-yl) piperidine-2,6-dione], the DC50 on CK1α is > 1 µM. For the same compound, the pIC50 at CRBN/DDB1 was < 6.00.

On CK1α, `Cc1ccccc1N1C(=O)N(c2ccc3c(c2)CN(C2CCC(=O)NC2=O)C3=O)C[C@H]1C` (stereo partly drawn) [Compound 167, 3-(5-((R)-4-methyl-2-oxo-3-(o-tolyl)imidazolidin-1-yl)-1-oxoisoindolin-2-yl)piperidine-2,6-dione] yielded a DC50 of 0.1 to 1 µM. The pIC50 at CRBN/DDB1 is 6.00 to 7.00.

Turning to `CC(C)C(=O)c1ccc(N2CCN(c3ccc4c(c3)CN(C3CCC(=O)NC3=O)C4=O)C2=O)cc1` (stereo not drawn) [Compound 181, 3-(5-(3-(4-isobutyrylphenyl)-2-oxoimidazolidin-1-yl)-1-oxoisoindolin-2-yl)piperidine-2,6-dione], at CK1α, the DC50 was > 1 µM. For the same compound, the pIC50 at CRBN/DDB1 is ≥ 7.00.

As for `C[C@@H]1CN(c2ccc3c(c2)CN(C2CCC(=O)NC2=O)C3=O)C(=O)N1c1ncccn1` (stereo partly drawn) [Compound 182, 3-(5-((R)-4-methyl-2-oxo-3-(pyrimidin-2-yl)imidazolidin-1-yl)-1-oxoisoindolin-2-yl)piperidine-2,6-dione], at CK1α, the DC50 is > 1 µM. Moreover, the pIC50 on CRBN/DDB1 is 6.00 to 7.00.

In the case of `COCc1cc(C)ccc1N1CCN(c2ccc3c(c2)CN(C2CCC(=O)NC2=O)C3=O)C1=O` (stereo not drawn) [Compound 166, 3-(5-(3-(2-(methoxymethyl)-4-methylphenyl)-2-oxoimidazolidin-1-yl)-1-oxoisoindolin-2-yl)piperidine-2,6-dione], the DC50 at CK1α is 0.1 to 1 µM. In addition, on CRBN/DDB1, the pIC50 was 6.00 to 7.00.

On CK1α, `COC[C@H]1CN(c2ccc3c(c2)CN(C2CCC(=O)NC2=O)C3=O)C(=O)N1c1ccc(C)cc1` (stereo partly drawn) [Compound 157, 3-(5-((R)-4-(methoxymethyl)-2-oxo-3-(p-tolyl)imidazolidin-1-yl)-1-oxoisoindolin-2-yl)piperidine-2,6-dione] yielded a DC50 of 0.1 to 1 µM. Further, the pIC50 on CRBN/DDB1 is 6.00 to 7.00.

On to `Cc1ccc(N2C(=O)N(c3ccc4c(c3)CN(C3CCC(=O)NC3=O)C4=O)C[C@H]2C)cn1` (stereo partly drawn) [Compound 151, 3-(5-((R)-4-methyl-3-(6-methylpyridin-3-yl)-2-oxoimidazolidin-1-yl)-1-oxoisoindolin-2-yl)piperidine-2,6-dione], for which the DC50 at CK1α is ≤ 0.1 µM. The pIC50 on CRBN/DDB1 is 6.00 to 7.00.

`COC(C)c1ccccc1N1CCN(c2ccc3c(c2)CN(C2CCC(=O)NC2=O)C3=O)C1=O` (stereo not drawn) [Compound 169, 3-(5-(3-(2-(1-methoxyethyl)phenyl)-2-oxoimidazolidin-1-yl)-1-oxoisoindolin-2-yl)piperidine-2,6-dione]: the DC50 at CK1α was 0.1 to 1 µM. For the same compound, on CRBN/DDB1, the pIC50 is 6.00 to 7.00.

Regarding `O=C1CCC(N2Cc3cc(N4C[C@H](C(F)(F)F)N(c5ccccc5)C4=O)ccc3C2=O)C(=O)N1` (stereo partly drawn) [Compound 108, 3-(1-oxo-5-((R)-2-oxo-3-phenyl-4-(trifluoromethyl)imidazolidin-1-yl)isoindolin-2-yl)piperidine-2,6-dione], on CK1α, the DC50 is > 1 µM. Also, the pIC50 at CRBN/DDB1 was 6.00 to 7.00.

On to `CN1Cc2cccc(N3CCN(c4ccc5c(c4)CN(C4CCC(=O)NC4=O)C5=O)C3=O)c2C1` (stereo not drawn) [Compound 172, 3-(5-(3-(2-methylisoindolin-4-yl)-2-oxoimidazolidin-1-yl)-1-oxoisoindolin-2-yl)piperidine-2,6-dione], for which, on CK1α, the DC50 is > 1 µM. In addition, the pIC50 on CRBN/DDB1 was ≥ 7.00.

The compound `COCc1ccccc1N1CCN(c2ccc3c(c2)CN(C2CCC(=O)NC2=O)C3=O)C1=O` (stereo not drawn) [Compound 168, 3-(5-(3-(2-(methoxymethyl)phenyl)-2-oxoimidazolidin-1-yl)-1-oxoisoindolin-2-yl)piperidine-2,6-dione] yielded a DC50 on CK1α of 0.1 to 1 µM. The pIC50 at CRBN/DDB1 is 6.00 to 7.00.

For the compound `O=C1CCC(N2Cc3cc(N4CCN(C(c5ccccc5)C(F)(F)F)C4=O)ccc3C2=O)C(=O)N1` (stereo not drawn) [Compound 179, 3-(1-oxo-5-(2-oxo-3-(2,2,2-trifluoro-1-phenylethyl)imidazolidin-1-yl)isoindolin-2-yl)piperidine-2,6-dione], at CK1α, the DC50 was > 1 µM. At CRBN/DDB1, the pIC50 was 6.00 to 7.00.

As to `C[C@@H]1CN(c2ccc3c(c2)CN(C2CCC(=O)NC2=O)C3=O)C(=O)N1c1cnccn1` (stereo partly drawn) [Compound 132, 3-(5-((R)-4-methyl-2-oxo-3-(pyrazin-2-yl)imidazolidin-1-yl)-1-oxoisoindolin-2-yl)piperidine-2,6-dione], the DC50 at CK1α is ≤ 0.1 µM. Moreover, on CRBN/DDB1, the pIC50 is 6.00 to 7.00.

Take `CO[C@@H](C)c1cccc(N2CCN(c3ccc4c(c3)CN(C3CCC(=O)NC3=O)C4=O)C2=O)c1` (stereo partly drawn) [Compound 139, 3-(5-(3-(3-((S)-1-methoxyethyl)phenyl)-2-oxoimidazolidin-1-yl)-1-oxoisoindolin-2-yl)piperidine-2,6-dione]: the DC50 at CK1α was ≤ 0.1 µM. In addition, the pIC50 on CRBN/DDB1 was 6.00 to 7.00.

`Cc1ccc(N2C(=O)N(c3ccc4c(c3)CN(C3CCC(=O)NC3=O)C4=O)CC2C)cn1` (stereo not drawn) [Compound 122, 3-(5-(4-methyl-3-(6-methylpyridin-3-yl)-2-oxoimidazolidin-1-yl)-1-oxoisoindolin-2-yl)piperidine-2,6-dione] came in with a DC50 on CK1α of 0.1 to 1 µM. Besides, the pIC50 on CRBN/DDB1 was < 6.00.

As for `Cc1ccc(N2C(=O)N(c3ccc4c(c3)CN(C3CCC(=O)NC3=O)C4=O)C[C@H]2C)cc1` (stereo partly drawn) [Compound 130, 3-(5-((R)-4-methyl-2-oxo-3-(p-tolyl)imidazolidin-1-yl)-1-oxoisoindolin-2-yl) piperidine-2,6-dione], the DC50 on CK1α is ≤ 0.1 µM. Further, on CRBN/DDB1, the pIC50 was 6.00 to 7.00.

`CN1CCN(c2cccc(N3CCN(c4ccc5c(c4)CN(C4CCC(=O)NC4=O)C5=O)C3=O)c2)CC1` (stereo not drawn) [Compound 165, 3-(5-(3-(3-(4-methylpiperazin-1-yl)phenyl)-2-oxoimidazolidin-1-yl)-1-oxoisoindolin-2-yl)piperidine-2,6-dione] displayed a DC50 at CK1α of 0.1 to 1 µM. In addition, the pIC50 at CRBN/DDB1 was 6.00 to 7.00.

For `COCc1cccc(N2CCN(c3ccc4c(c3)CN(C3CCC(=O)NC3=O)C4=O)C2=O)c1` (stereo not drawn) [Compound 136, 3-(5-(3-(3-(methoxymethyl)phenyl)-2-oxoimidazolidin-1-yl)-1-oxoisoindolin-2-yl)piperidine-2,6-dione], at CK1α, the DC50 was ≤ 0.1 µM. For the same compound, at CRBN/DDB1, the pIC50 was 6.00 to 7.00.

Turning to `O=C1CCC(N2Cc3cc(N4CCN(c5ccc(C6COC6)cc5)C4=O)ccc3C2=O)C(=O)N1` (stereo not drawn) [Compound 146, 3-(5-(3-(4-(oxetan-3-yl)phenyl)-2-oxoimidazolidin-1-yl)-1-oxoisoindolin-2-yl)piperidine-2,6-dione], the DC50 on CK1α is ≤ 0.1 µM. In addition, the pIC50 on CRBN/DDB1 is 6.00 to 7.00.
